We go through 6 compounds from US4540517A, “Antibiotic TAN-420” (Takeda Chemical Industries, Ltd., priority 1982, dated 1985).

Series [1] concerns gram-positive bacteria, fungi and protozoae. The series is described as follows: Antimicrobial activity (general statement). To be noted: considered, relative to TAN-420B.
The test system of series [2] is Pseudomonas aeruginosa IFO 3080. As to the kind of experiment: Agar dilution assay, antimicrobial activity. In kind it is cell-based. The protocol: (§1) The antimicrobial activity of Antibiotic TAN-420B, C, D and E was assayed by the agar dilution method using Typticase soy agar (Baltimore Biological Laboratories, U.S.A.) as the test medium.
(In agar dilution, organisms are placed on agar that contains the substance at set levels.)

Series [3] deals with Bacillus subtilis PCI 219. The series is described as follows: Agar dilution assay, antimicrobial activity. It counts as cell-based. The protocol:
as §1

For the next series, the system named is B. pumilus IFO 3813. The series is described as follows: Agar dilution assay, antimicrobial activity. It counts as cell-based. The conditions noted are these: Bacillus pumilus. The protocol: as §1
A further series concerns B. brevis IFO 3331. As to the kind of experiment: Agar dilution assay, antimicrobial activity. To be noted: Brevibacillus brevis. It counts as cell-based. The protocol:
as §1

Series [4] has as its system Micrococcus flavus IFO 3242. The series is described as follows: Agar dilution assay, antimicrobial activity. In kind it is cell-based. The protocol: as §1
A further series has as its system B. megaterium IFO 12108. As to the kind of experiment: Agar dilution assay, antimicrobial activity. It counts as cell-based. To be noted: Priestia megaterium. Here is the method:
as §1

Another series deals with B. cereus IFO 3514. As to the kind of experiment: Agar dilution assay, antimicrobial activity. The conditions noted are these: Bacillus cereus. In kind it is cell-based. The protocol:
as §1

The next series has as its system Escherichia coli K12. The series is described as follows: Agar dilution assay, antimicrobial activity. In kind it is cell-based. Here is the method: as §1
Series [5] concerns Staphylococcus aureus FDA 209P. The series is described as follows: Agar dilution assay, antimicrobial activity. In kind it is cell-based. The conditions noted are these: FDA209P, read-out: Minimal inhibitory concentration. Here is the method:
as §1

The next series deals with Tetrahymena pyriformis W. The series is described as follows: Liquid dilution assay of antiprotozoal activity. In kind it is cell-based. To be noted: read-out: minimal inhibitory concentration.
The nature of series [6]: Toxicity compared with herbimycin A. To be noted: comparison in words.
Series [7] can be described thus: Acute toxicity (mouse, intraperitoneal). The conditions noted are these: in vivo, ip. Here is the method: As regards the acute toxocity of Antibiotic TAN-420 (mouse, intraperitoneal), the LD50 value of TAN-420C was 200 to 400 mg/kg, that of TAN-420D was 100 mg/kg, and that of TAN-420E was 50 mg/kg. It is therefore, considered that the toxicity of Antibiotic TAN-420 is low.

For series [8] the following is noted: known from Journal of Antibiotics 32, 255-261 (1979), Tetrahedron Letters No. 44, 4323-4326 (1979); cited from earlier work.
The mark [9] stands for this setting: IFO3080, agar dilution, Pseudomonas aeruginosa IFO 3080, read-out: Minimal inhibitory concentration.
Where [10] appears, read: PCI219, agar dilution, Bacillus subtilis PCI 219, read-out: Minimal inhibitory concentration.
Where [11] appears, read: IFO3813, agar dilution, B. pumilus IFO 3813, read-out: Minimal inhibitory concentration.
The mark [12] stands for this setting: IFO3331, agar dilution, B. brevis IFO 3331, read-out: Minimal inhibitory concentration.
[13] abbreviates: IFO3242, agar dilution, Micrococcus flavus IFO 3242, read-out: Minimal inhibitory concentration.
[14] abbreviates: IFO12108, agar dilution, B. megaterium IFO 12108, read-out: Minimal inhibitory concentration.
Where [15] appears, read: IFO3514, agar dilution, B. cereus IFO 3514, read-out: Minimal inhibitory concentration.
[16] abbreviates: agar dilution, Escherichia coli K12, read-out: Minimal inhibitory concentration.
Where [17] appears, read: agar dilution, Staphylococcus aureus FDA 209P.
Setting [18] is: liquid dilution assay, Tetrahymena pyriformis W.

In general, LD50 refers to the dose expected to kill half of the subjects tested. High values mean a less toxic substance, low ones a more toxic substance.

In brackets after ≈: the same amount, converted by molar mass. Read-outs that look alike come from different tables or passages of the source.

In the case of `COC1C=CC=C(C)C(=O)Nc2cc(O)cc(c2O)C(OC)C(C)CC(O)C(O)C(C)C=C(C)C1OC(N)=O` (stereo not drawn) [TAN-420A], the antimicrobial activity entry in series [1] is on record as “of the same order as that of TAN-420B”.

Regarding `COC1C=CC=C(C)C(=O)NC2=CC(=O)C=C(C2=O)C(OC)C(C)CC(O)C(O)C(C)C=C(C)C1OC(N)=O` (stereo not drawn) [TAN-420B], the MIC is more than 100 µg/mL in series [2] (Pseudomonas aeruginosa, IFO3080, read-out: Minimal inhibitory concentration); more than 100 µg/mL in [3] (Bacillus subtilis, PCI219, read-out: Minimal inhibitory concentration); 100 µg/mL (≈ 183 µM) with B. pumilus IFO 3813 (IFO3813, read-out: Minimal inhibitory concentration); 50 µg/mL (≈ 91.5 µM) in the series on B. brevis IFO 3331 (IFO3331, read-out: Minimal inhibitory concentration); 25 µg/mL (≈ 45.7 µM) in series [4] (Micrococcus flavus, IFO3242, read-out: Minimal inhibitory concentration); 100 µg/mL (≈ 183 µM) in the series with B. megaterium IFO 12108 (IFO12108, read-out: Minimal inhibitory concentration). Besides, the MIC was 100 µg/mL (≈ 183 µM) in the series on B. cereus IFO 3514 (IFO3514, read-out: Minimal inhibitory concentration); more than 100 µg/mL in the series with Escherichia coli K12 (Escherichia coli, K12, read-out: Minimal inhibitory concentration); 100 µg/mL (≈ 183 µM) in [5] (Staphylococcus aureus); 40 µg/mL (≈ 73.2 µM) with Tetrahymena pyriformis W (Tetrahymena pyriformis).

Consider `COC1C=CC=C(C)C(=O)Nc2cc(O)cc(c2O)C(OC)C(C)CC(OC)C(O)C(C)C=C(C)C1OC(N)=O` (stereo not drawn) [TAN-420C], for which, in series [6], the “toxicity relative to herbimycin A” value was “lower than that of herbimycin A”. For the same compound, the MIC in series [2] (setting [9]) was more than 100 µg/mL; in series [3] (setting [10]), more than 100 µg/mL; in the series on B. pumilus IFO 3813 (setting [11]) it was 100 µg/mL (≈ 178 µM); in the series with B. brevis IFO 3331 (setting [12]), 50 µg/mL (≈ 88.9 µM); in [4] (setting [13]) it was 25 µg/mL (≈ 44.4 µM); in the series on B. megaterium IFO 12108 (setting [14]) it was 100 µg/mL (≈ 178 µM). Further, the MIC is 100 µg/mL (≈ 178 µM) in the series on B. cereus IFO 3514 (setting [15]), more than 100 µg/mL in the series with Escherichia coli K12 (setting [16]), 100 µg/mL (≈ 178 µM) in [5] (setting [17]) and 10 µg/mL (≈ 17.8 µM) in the series on Tetrahymena pyriformis W (setting [18]). In [7], this compound registered an LD50 of 200 to 400 mg/kg.

On to `COC1C=CC=C(C)C(=O)NC2=CC(=O)C=C(C2=O)C(OC)C(C)CC(OC)C(O)C(C)C=C(C)C1OC(N)=O` (stereo not drawn) [TAN-420D], for which, in series [6], the “toxicity relative to herbimycin A” value is “lower than that of herbimycin A”. Besides, the MIC in series [2] (setting [9]) was more than 100 µg/mL; in [3] (setting [10]), more than 100 µg/mL; in the series on B. pumilus IFO 3813 (setting [11]) it was 100 µg/mL (≈ 178 µM); in the series with B. brevis IFO 3331 (setting [12]), 50 µg/mL (≈ 89.2 µM); in series [4] (setting [13]), 25 µg/mL (≈ 44.6 µM); in the series with B. megaterium IFO 12108 (setting [14]), 100 µg/mL (≈ 178 µM). For the same compound, the MIC in the series with B. cereus IFO 3514 (setting [15]) is 100 µg/mL (≈ 178 µM); in the series on Escherichia coli K12 (setting [16]), more than 100 µg/mL; in series [5] (setting [17]), 100 µg/mL (≈ 178 µM); in the series on Tetrahymena pyriformis W (setting [18]), 4 µg/mL (≈ 7.13 µM). For the same compound, the LD50 in [7] was determined as 100 mg/kg.

Turning to `COC1C=CC=C(C)C(=O)Nc2cc(O)cc(c2O)C(OC)C(C)CC(OC)C(OC)C(C)C=C(C)C1OC(N)=O` (stereo not drawn) [TAN-420E], in series [6], the “toxicity relative to herbimycin A” value was “lower than that of herbimycin A”. Also, the MIC in series [2] (setting [9]) is more than 100 µg/mL; in series [3] (setting [10]), 100 µg/mL (≈ 173 µM); with B. pumilus IFO 3813 (setting [11]), 100 µg/mL (≈ 173 µM); in the series with B. brevis IFO 3331 (setting [12]) it was 50 µg/mL (≈ 86.7 µM); in series [4] (setting [13]), 50 µg/mL (≈ 86.7 µM); in the series with B. megaterium IFO 12108 (setting [14]), 50 µg/mL (≈ 86.7 µM). The MIC in the series with B. cereus IFO 3514 (setting [15]) was 100 µg/mL (≈ 173 µM); in the series on Escherichia coli K12 (setting [16]) it was more than 100 µg/mL; in series [5] (setting [17]), 100 µg/mL (≈ 173 µM); in the series on Tetrahymena pyriformis W (setting [18]), 2 µg/mL (≈ 3.47 µM). The same compound returned an LD50 in series [7] of 50 mg/kg.

As to `COC1C=CC=C(C)C(=O)NC2=CC(=O)C=C(C2=O)C(OC)C(C)CC(OC)C(OC)C(C)C=C(C)C1OC(N)=O` (stereo not drawn) [herbimycin A], in series [8], the herbicidal activity result is recorded as “has herbicidal activity”.
